Data taken from patent US20220041647A1, “ESTRA-1,3,5(10)-TRIENE COMPOUNDS CONDENSED IN POSITION 16(17) WITH A PYRAZOLE RING AS INHIBITORS OF 17-HSD1” (FORENDO PHARMA LTD, priority 2018, published 2022).

Experiments:
Type in all cases: biochemical
[1] = molecular target: T1, recombinant human 17β-HSD1 (Homo sapiens, UniProt P14061); experiment: Inhibition of recombinant human 17β-HSD1 (estrone to estradiol conversion, HPLC/radioactivity); conditions: compound 100 nM; 30 nM estrone, 1 mM NADPH, 30 min RT
T1 construct: made in house; host or cells: Sd9 (Sf9) insect cells, baculovirus (Bac to Bac Expression System)
T1 sequence (P14061 1-328): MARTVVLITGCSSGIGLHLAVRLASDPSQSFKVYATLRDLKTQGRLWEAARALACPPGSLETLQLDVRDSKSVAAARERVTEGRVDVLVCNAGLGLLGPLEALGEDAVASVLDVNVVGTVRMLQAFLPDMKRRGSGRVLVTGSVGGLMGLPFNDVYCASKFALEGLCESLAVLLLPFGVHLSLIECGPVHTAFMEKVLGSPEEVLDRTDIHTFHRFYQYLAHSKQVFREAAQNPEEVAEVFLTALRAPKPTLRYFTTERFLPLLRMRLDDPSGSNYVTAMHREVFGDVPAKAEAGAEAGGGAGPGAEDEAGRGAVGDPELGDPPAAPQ
Protocol: 17β-HSD1 production and isolation: Recombinant baculovirus was generated by the “Bac to Bac Expression System” (Invitrogen). Recombinant bacmid was transfected to Sd9 insect cells using “Cellfectin Reagent” (Invitrogen). 60 h later cells were harvested; the microsomal fraction was isolated as described by Puranen, T. J., Poutanen, M. H., Peltoketo, H. E., Vihko, P. T. and Vihko, R. K. (1994) Site-directed mutagenesis of the putative active site of human 17 β-hydroxysteroid dehydrogenase type 1. Biochem. J. 304: 289-293. Aliquots were stored frozen until determination of enzymatic activity.
Assay—Inhibition of recombinant human 17β-HSD1: Recombinant protein (1 μg/ml) was incubated in 20 mM KH2PO4 pH 7.4 with 30 nM estrone (including 800 000 cpm/ml of ^3H-estrone) and 1 mM NADPH for 30 min at RT, in the presence of the potential inhibitor at concentrations 1 μM or 0.1 μM. Inhibitor stock solutions were prepared in DMSO. Final concentration of DMSO was adjusted to 1% in all samples. The enzyme reaction was stopped by addition of 10% trichloroacetic acid (final concentration). Samples were centrifuged in a microtiter plate at 4000 rpm for 10 min. Supernatants were applied to reverse phase HPLC on a Waters Symmetry C18 column, equipped with a Waters Sentry Guard column. Isocratic HPLC runs were performed at RT at a flow rate of 1 ml/min in acetonitrile:water 48:52 as running solvent. Radioactivity was monitored in the eluate by a Scintillation Analyzer. Total radioactivity for estrone and estradiol were determined in each sample and percent conversion of estrone to estradiol was calculated according to the following formula:
% conversion=100×{(cpm estradiol in sample with inhibitor)/[(cpm estrone in sample with inhibitor)+(cpm estradiol in sample with inhibitor)]}/{[(cpm estradiol in sample without inhibitor)/[(cpm estrone in sample without inhibitor)+(cpm estradiol in sample without inhibitor)]}.
(§1) Percent inhibition was calculated followingly: % inhibition=100−% conversion.

[2] = molecular target: T2, recombinant human 17β-HSD2 (Homo sapiens, UniProt P37059); experiment: Inhibition of recombinant human 17β-HSD2 (estradiol to estrone conversion, HPLC/radioactivity); conditions: compound 1 μM; 50 nM estradiol, 1 mM NADH, 30 min RT
T2 construct: made in house; host or cells: Sd9 (Sf9) insect cells, baculovirus (Bac to Bac Expression System)
T2 sequence (P37059 1-387): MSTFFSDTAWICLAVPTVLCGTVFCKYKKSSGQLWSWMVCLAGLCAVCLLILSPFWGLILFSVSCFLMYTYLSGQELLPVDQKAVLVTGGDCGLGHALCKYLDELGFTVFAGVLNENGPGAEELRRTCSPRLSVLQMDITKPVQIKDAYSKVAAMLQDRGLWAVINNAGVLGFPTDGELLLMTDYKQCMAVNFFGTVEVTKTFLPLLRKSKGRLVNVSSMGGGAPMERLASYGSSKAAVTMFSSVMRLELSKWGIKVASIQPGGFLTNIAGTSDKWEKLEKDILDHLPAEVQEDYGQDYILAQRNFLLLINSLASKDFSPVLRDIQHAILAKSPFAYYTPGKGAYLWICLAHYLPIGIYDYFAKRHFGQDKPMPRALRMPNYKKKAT
Protocol: 17β-HSD2 production and isolation: Similarly to 173-HSD1 the Recombinant baculovirus was generated by the “Bac to Bac Expression System” (Invitrogen). Recombinant bacmid was transfected to Sd9 insect cells using “Cellfectin Reagent” (Invitrogen). 60 h later cells were harvested and supernatant were fractionated by the following protocol: • cells were dissolved into 40 ml of A-buffer (40 mM TRIS, pH8.0, 20% glycerol, 20 μM NAD, 0.4 mM PMSF, 150 mM NaCl, 0.5% dodecyl-β-maltoside+protease inhibitor cocktail) • cells were sonicated • lysate was incubated on ice for 15 min • lysate was centrifuged 5000 rpm 15 min, +4° C. • centrifugation of the supernatant 180 000 g 30 min, +4° C. • pellet was dissolved into 8 ml of A-buffer • not resuspended material was removed by centrifugation 5000 rpm 15 min, +4° C. • the clear supernatant was divided into 100 μl aliquots and were stored frozen until determination of enzymatic activity.
The amount of 173-HSD2 was analysed by immunoblotting and total protein concentration of each extract batch was determined.
Assay—Inhibition of recombinant human 17β-HSD2: Recombinant protein (4 μg/ml) was incubated in 20 mM KH2PO4 pH 8.5 with 50 nM estradiol (including 800 000 cpm/ml of ^3H-estradiol) and 1 mM NADH for 30 min at RT, in the presence of the potential inhibitor at concentrations 1 μM or 0.1 μM. Inhibitor stock solutions were prepared in DMSO. Final concentration of DMSO was adjusted to 1% in all samples. The enzyme reaction was stopped by addition of 10% trichloroacetic acid (final concentration). Samples were centrifuged in a microtiter plate at 4000 rpm for 10 min. Supernatants were applied to reverse phase HPLC on a Waters Symmetry C18 column, equipped with a Waters Sentry Guard column. Isocratic HPLC runs were performed at RT at a flow rate of1 ml/min in acetonitrile:water 48:52 as running solvent. Radioactivity was monitored in the eluate by a Scintillation Analyzer. Total radioactivity for estrone and estradiol were determined in each sample and percent conversion of estradiol to estrone was calculated according to the following formula:
% conversion=100×{(cpm estrone in sample with inhibitor)/[(cpm estradiol in sample with inhibitor)+(cpm estrone in sample with inhibitor)]}/{[(cpm estrone in sample without inhibitor)/[(cpm estradiol in sample without inhibitor)+(cpm estrone in sample without inhibitor)]}.
as §1

[3] = tested on: HSD1 enzyme that is expressed in rabbit placenta tissue; experiment: Inhibition of E1 to E2 conversion in rabbit placenta tissue homogenate; conditions: compound 100 nM, 30 nM estrone, 1 mM β-NADPH, 30 min
Protocol: The assay is based on an enzymatic reaction where HSD1 enzyme that is expressed in rabbit placenta tissue converts its natural substance estrone (E1) to estradiol (E2) in the presence of a co-factor β-NADPH.
Homogenization of rabbit placenta tissue: Weight a piece of the frozen tissue into a Precellys ck28 bead tube. Add buffer solution (20 mM KH2PO4 with 1 mM EDTA, pH 7.4) in 1:2 ratio (e.g. 300 mg of tissue:600 μl reaction buffer solution). Insert the bead tubes to homogenizer and homogenize 2×30 s. 6000 rpm.
Centrifugated 5 min., 2600 rpm at +4° C. and collect supernatant. Aliquots of homogenate are stored in −80° C.
Assay—Inhibition of E1 to E2 conversion in rabbit placenta tissue: The reaction takes place in a buffer solution (20 mM KH2PO4 with 1 mM EDTA, pH 7,4), including appropriate amount of rabbit placenta homogenate, co-factor (1 mM β-NADPH), Substrate (30 nM estrone), labelled substrate as tracer (5 nM [^3H]-estrone), and the potential inhibitor at concentrations 1 μM or 0.1 μM. Inhibitor stock solutions were prepared in DMSO. Final concentration of DMSO was adjusted to 1% in all samples. During a 30-minute incubation part of the estrone is converted to estradiol. The reaction is stopped by lowering the pH to 1 with 10% trichloro acetic acid (TCA). The substrate and conversion products are analyzed by HPLC and a Scintillation counter analyzer. Total radioactivity for estrone and estradiol were determined in each sample and percent conversion of estrone to estradiol was calculated according to the following formula:
% conversion=100×{(cpm estradiol in sample with inhibitor)/[(cpm estrone in sample with inhibitor)+(cpm estradiol in sample with inhibitor)]}/{(cpm estradiol in sample without inhibitor)/[(cpm estrone in sample without inhibitor)+(cpm estradiol in sample without inhibitor)]}.
as §1

SMILES | inhibition at 0.1 µM [1] [%] | inhibition at 1 µM [2] [%] | Rabbit placenta inhibition % @100 nM [3] [%]
COc1ccc(NC(=O)CC[C@@H]2c3c[nH]nc3[C@@]3(C)CCC4c5ccc(F)cc5CCC4C23)nn1 (stereo partly drawn) [Compound 108, 3-((8aS,12S)-4-fluoro-8a-methyl-1,2,6b,7,8,8a,10,12,12a,12b-decahydronaphtho[2′,1′:4,5]indeno[1,2-c]pyrazol-12-yl)-N-(6-methoxypyridazin-3-yl)propanamide] | 56 | -2 | 45
C[C@]12CCC3c4cccc(F)c4CCC3C1[C@H](CCC(=O)Nc1cccc(F)n1)c1c[nH]nc12 (stereo partly drawn) [Compound 204, 3-((8aS,12S)-3-fluoro-8a-methyl-1,2,6b,7,8,8a,10,12,12a,12b-decahydronaphtho[2′,1′:4,5]indeno[1,2-c]pyrazol-12-yl)-N-(6-fluoropyridin-2-yl)propanamide] | 96 | 1 | 63
C[C@]12CCC3c4ccccc4CCC3C1[C@H](CCC(=O)NC1CCOCC1)c1c[nH]nc12 (stereo partly drawn) [Compound 153, 3-((8aS,12S)-8a-methyl-1,2,6b,7,8,8a,10,12,12a,12b-decahydronaphtho[2′,1′:4,5]indeno[1,2-c]pyrazol-12-yl)-N-(tetrahydro-2H-pyran-4-yl)propanamide] | 85 | 4 | 10
Cc1ccnc(NC(=O)CC[C@@H]2c3c[nH]nc3[C@@]3(C)CCC4c5cccc(F)c5CCC4C23)c1 (stereo partly drawn) [Compound 27, 3-((8aS,12S)-3-fluoro-8a-methyl-1,2,6b,7,8,8a,10,12,12a,12b-decahydronaphtho[2′,1′:4,5]indeno[1,2-c]pyrazol-12-yl)-N-(4-methylpyridin-2-yl)propanamide] | 96 | 2 | 55
C[C@]12CCC3c4ccc(F)cc4CCC3C1[C@H](CCC(=O)Nc1cccc(F)n1)c1c[nH]nc12 (stereo partly drawn) [Compound 105, 3-((8aS,12S)-4-fluoro-8a-methyl-1,2,6b,7,8,8a,10,12,12a,12b-decahydronaphtho[2′,1′:4,5]indeno[1,2-c]pyrazol-12-yl)-N-(6-fluoropyridin-2-yl)propanamide] | 82 | 9 | 28
C[C@]12CCC3c4cccc(F)c4CCC3C1[C@H](CCC(=O)Nc1ccc(F)cn1)c1c[nH]nc12 (stereo partly drawn) [Compound 12, 3-((8aS,12S)-3-fluoro-8a-methyl-1,2,6b,7,8,8a,10,12,12a,12b-decahydronaphtho[2′,1′:4,5]indeno[1,2-c]pyrazol-12-yl)-N-(5-fluoropyridin-2-yl)propanamide] | 92 | 5 | 46
CC(C)(C)c1cc(NC(=O)CC[C@@H]2c3c[nH]nc3[C@@]3(C)CCC4c5cccc(F)c5CCC4C23)no1 (stereo partly drawn) [Compound 213, N-(5-(tert-butyl)isoxazol-3-yl)-3-((8aS,12S)-3-fluoro-8a-methyl-1,2,6b,7,8,8a,10,12,12a,12b-decahydronaphtho[2′,1′:4,5]indeno[1,2-c]pyrazol-12-yl)propanamide] | 93 | 10 | 25
C[C@]12CCC3c4ccc(F)cc4CCC3C1[C@H](CCC(=O)Nc1cnccn1)c1c[nH]nc12 (stereo partly drawn) [Compound 120, 3-((8aS,12S)-4-fluoro-8a-methyl-1,2,6b,7,8,8a,10,12,12a,12b-decahydronaphtho[2′,1′:4,5]indeno[1,2-c]pyrazol-12-yl)-N-(pyrazin-2-yl)propanamide] | 67 | 4 | 34
C[C@]12CCC3c4cccc(F)c4CCC3C1[C@H](CCC(=O)NC1CCOC1)c1c[nH]nc12 (stereo partly drawn) [Compound 225, 3-((8aS,12S)-3-fluoro-8a-methyl-1,2,6b,7,8,8a,10,12,12a,12b-decahydronaphtho[2′,1′:4,5]indeno[1,2-c]pyrazol-12-yl)-N-(tetrahydrofuran-3-yl)propanamide] | 88 | -2 | 10
C[C@]12CCC3c4ccccc4CCC3C1[C@H](CCC(=O)Nc1cccc(F)n1)c1c[nH]nc12 (stereo partly drawn) [Compound 258, N-(6-fluoropyridin-2-yl)-3-((8aS,12S)-8a-methyl-1,2,6b,7,8,8a,10,12,12a,12b-decahydronaphtho[2′,1′:4,5]indeno[1,2-c]pyrazol-12-yl)propanamide] | 90 | 2 | 43
